# According to US12472272B2, “Radiolabelled compounds for diagnosis or treatment of prostate-specific membrane antigen- expressing cancer” (PROVINCIAL HEALTH SERVICES AUTHORITY, priority 2019, dated 2025):
# Columns and labels:
# [1] = system: LNCaP tumors; assay: SPECT/CT imaging of ^177Lu-labeled HTK03041; format: in vivo, mice; details: 1 h to 120 h post-injection, FIG. 4
# Protocol: (§1) Imaging and biodistribution experiments were performed using NODSCID 1L2RγKO male mice. Mice were anesthetized by inhalation with 2% isoflurane in oxygen, and implanted subcutaneously with 1×10^7 LNCaP cells behind left shoulder. Mice were imaged or used in biodistribution studies when the tumor grew up to reach 5-8 mm in diameter during 5-6 weeks.
# SPECT/CT imaging experiments were conducted using the MlLabs (Utrecht, the Netherlands) U-SPECT-II/CT scanner. Each tumor bearing mouse was injected with ˜37 MBq of ^177Lu-labeled HTK03041 through the tail vein under anesthesia (2% isoflurane in oxygen). The mice were allowed to recover and roam freely in their cage and imaged at 1, 4, 24, 72 and 120 hours after injection. At each time point, the mice were sedated again and positioned in the scanner. A 5-min CT scan was conducted first for anatomical reference with a voltage setting at 60 kV and current at 615 μA followed by a 60-min static emission scan acquired in list mode using an ultra-high resolution multi-pinhole rat-mouse (1 mm pinhole size) collimator. Data were reconstructed using the U-SPECT II software with a 20% window width on three energy windows. The photopeak window was centered at 208 keV, with lower scatter and upper scatter windows centered at 170 and 255 keV, respectively. […]
# [2] = system: PSMA-expressing cancer xenografts (LNCaP); assay: Biodistribution of ^177Lu-labeled HTK03041; format: in vivo, mice; details: for Tissue (% ID/g): Adrenal glands / Tissue (% ID/g): Blood / Tissue (% ID/g): Bone / Tissue (% ID/g): Brain / Tissue (% ID/g): Fat / Tissue (% ID/g): Heart / Tissue (% ID/g): Intestine / Tissue (% ID/g): Kidneys / Tissue (% ID/g): Lacrimal / Tissue (% ID/g): Liver / Tissue (% ID/g): Lungs / Tissue (% ID/g): Muscle / Tissue (% ID/g): Pancreas / Tissue (% ID/g): Salivary / Tissue (% ID/g): Seminal / Tissue (% ID/g): Spleen / Tissue (% ID/g): Stomach / Tissue (% ID/g): Tail / Tissue (% ID/g): Testes / Tissue (% ID/g): Thyroid / Tissue (% ID/g): Tumor / Tissue (% ID/g): Urine / tumor-to-background contrast ratio Tumor: Blood / tumor-to-background contrast ratio Tumor: Muscle / tumor-to-background contrast ratio Tumor: kidney: ^177Lu
# Protocol: as §1
# SPECT/CT imaging experiments were conducted using the MlLabs (Utrecht, the Netherlands) U-SPECT-II/CT scanner. Each tumor bearing mouse was injected with ˜37 MBq of ^177Lu-labeled HTK03041 through the tail vein under anesthesia (2% isoflurane in oxygen). The mice were allowed to recover and roam freely in their cage and imaged at 1, 4, 24, 72 and 120 hours after injection. At each time point, the mice were sedated again and positioned in the scanner. A 5-min CT scan was conducted first for anatomical reference with a voltage setting at 60 kV and current at 615 μA followed by a 60-min static emission scan acquired in list mode using an ultra-high resolution multi-pinhole rat-mouse (1 mm pinhole size) collimator. Data were reconstructed using the U-SPECT II software with a 20% window width on three energy windows. The photopeak window was centered at 208 keV, with lower scatter and upper scatter windows centered at 170 and 255 keV, respectively. Reconstruction parameters used maximum-likelihood expectation maximization (3 iterations), pixel-based ordered subset expectation maximization (16 subsets), and a post-processing filter (Gaussian blurring) of 0.5 mm. Images were decay corrected to injection time in PMOD (PMOD Technologies, Switzerland) then converted to DICOM for qualitative visualization in Inveon Research Workplace (Siemens Medical Solutions USA, Inc.).
# For biodistribution studies, the mice were injected with the radiotracer as described above. At predetermined time points (1 or 3 h for ^68Ga studies; 1, 4, 24, 72, or 120 h for ^177Lu studies), the mice was anesthetized with 2% isoflurane inhalation, and euthanized by CO2 inhalation. Blood was withdrawn immediately from the heart, and the organs/tissues of interest were collected. The collected organs/tissues were weighed and counted using a Perkin Elmer (Waltham, MA) Wizard2 2480 gamma counter. The uptake in each organ/tissue was normalized to the injected dose using a standard curve, and expressed as the percentage of the injected dose per gram of tissue (% ID/g).
compound,measurement,setting,value
O=C([O-])CN1CCN(CC(=O)[O-])CCN(CC(=O)NC[C@H]2CC[C@H](C(=O)N[C@@H](Cc3c4ccccc4cc4ccccc34)C(=O)NCCCC[C@H](NC(=O)N[C@@H](CCC(=O)O)C(=O)O)C(=O)O)CC2)CCN(CC(=O)[O-])CC1.[177Lu+3] [^177Lu-HTK03041],uptake in background tissues including kidneys in SPECT images,[1],cleared quickly over time
same,uptake in tumor in SPECT images,[1],sustained over the course the study
same,peaked tumor uptake,[2]; LNCaP tumor-bearing mice,~20 % ID/g
same,Tissue (% ID/g): Adrenal glands,[2]; 1 h post-injection,5.53 ± 1.90 % ID/g
same,Tissue (% ID/g): Blood,[2]; 1 h post-injection,0.84 ± 0.15 % ID/g
same,Tissue (% ID/g): Bone,[2]; 1 h post-injection,0.29 ± 0.07 % ID/g
same,Tissue (% ID/g): Brain,[2]; 1 h post-injection,0.04 ± 0.01 % ID/g
same,Tissue (% ID/g): Fat,[2]; 1 h post-injection,1.09 ± 0.20 % ID/g
same,Tissue (% ID/g): Heart,[2]; 1 h post-injection,2.44 ± 0.43 % ID/g
same,Tissue (% ID/g): Intestine,[2]; 1 h post-injection,1.25 ± 0.15 % ID/g
same,Tissue (% ID/g): Kidneys,[2]; 1 h post-injection,98.6 ± 9.27 % ID/g
same,Tissue (% ID/g): Lacrimal,[2]; 1 h post-injection,0.03 ± 0.04 % ID/g
same,Tissue (% ID/g): Liver,[2]; 1 h post-injection,1.91 ± 0.38 % ID/g
same,Tissue (% ID/g): Lungs,[2]; 1 h post-injection,4.41 ± 0.49 % ID/g
same,Tissue (% ID/g): Muscle,[2]; 1 h post-injection,0.94 ± 0.20 % ID/g
same,Tissue (% ID/g): Pancreas,[2]; 1 h post-injection,1.61 ± 0.24 % ID/g
same,Tissue (% ID/g): Salivary,[2]; 1 h post-injection,5.88 ± 0.82 % ID/g
same,Tissue (% ID/g): Seminal,[2]; 1 h post-injection,1.22 ± 0.85 % ID/g
same,Tissue (% ID/g): Spleen,[2]; 1 h post-injection,8.80 ± 2.53 % ID/g
same,Tissue (% ID/g): Stomach,[2]; 1 h post-injection,0.47 ± 0.18 % ID/g
same,Tissue (% ID/g): Tail,[2]; 1 h post-injection,3.41 ± 3.03 % ID/g
same,Tissue (% ID/g): Testes,[2]; 1 h post-injection,1.01 ± 0.17 % ID/g
same,Tissue (% ID/g): Thyroid,[2]; 1 h post-injection,3.38 ± 0.44 % ID/g
same,Tissue (% ID/g): Tumor,[2]; 1 h post-injection,10.8 ± 1.57 % ID/g
same,Tissue (% ID/g): Urine,[2]; 1 h post-injection,160 ± 49.6 % ID/g
same,tumor-to-background contrast ratio Tumor: Blood,[2]; 1 h post-injection,13.4 ± 4.08
same,tumor-to-background contrast ratio Tumor: Muscle,[2]; 1 h post-injection,12.1 ± 4.21
same,tumor-to-background contrast ratio Tumor: kidney,[2]; 1 h post-injection,0.11 ± 0.02
same,Tissue (% ID/g): Adrenal glands,[2]; 4 h post-injection,3.41 ± 0.54 % ID/g
same,Tissue (% ID/g): Blood,[2]; 4 h post-injection,0.31 ± 0.04 % ID/g
same,Tissue (% ID/g): Bone,[2]; 4 h post-injection,0.45 ± 0.53 % ID/g
same,Tissue (% ID/g): Brain,[2]; 4 h post-injection,0.05 ± 0.05 % ID/g
same,Tissue (% ID/g): Fat,[2]; 4 h post-injection,0.56 ± 0.16 % ID/g
same,Tissue (% ID/g): Heart,[2]; 4 h post-injection,1.69 ± 0.13 % ID/g
same,Tissue (% ID/g): Intestine,[2]; 4 h post-injection,0.95 ± 0.08 % ID/g
same,Tissue (% ID/g): Kidneys,[2]; 4 h post-injection,101 ± 13.3 % ID/g
same,Tissue (% ID/g): Lacrimal,[2]; 4 h post-injection,0.02 ± 0.01 % ID/g
same,Tissue (% ID/g): Liver,[2]; 4 h post-injection,1.46 ± 0.17 % ID/g
same,Tissue (% ID/g): Lungs,[2]; 4 h post-injection,3.20 ± 0.41 % ID/g
same,Tissue (% ID/g): Muscle,[2]; 4 h post-injection,0.56 ± 0.15 % ID/g
same,Tissue (% ID/g): Pancreas,[2]; 4 h post-injection,1.15 ± 0.13 % ID/g
same,Tissue (% ID/g): Salivary,[2]; 4 h post-injection,2.18 ± 0.56 % ID/g
same,Tissue (% ID/g): Seminal,[2]; 4 h post-injection,0.57 ± 0.12 % ID/g
same,Tissue (% ID/g): Spleen,[2]; 4 h post-injection,3.22 ± 1.01 % ID/g
same,Tissue (% ID/g): Stomach,[2]; 4 h post-injection,0.37 ± 0.06 % ID/g
same,Tissue (% ID/g): Tail,[2]; 4 h post-injection,1.06 ± 0.60 % ID/g
same,Tissue (% ID/g): Testes,[2]; 4 h post-injection,0.92 ± 0.10 % ID/g
same,Tissue (% ID/g): Thyroid,[2]; 4 h post-injection,2.10 ± 0.19 % ID/g
same,Tissue (% ID/g): Tumor,[2]; 4 h post-injection,18.7±2.96 % ID/g
same,Tissue (% ID/g): Urine,[2]; 4 h post-injection,84.6 ± 39.3 % ID/g
same,tumor-to-background contrast ratio Tumor: Blood,[2]; 4 h post-injection,60.3 ± 4.81
same,tumor-to-background contrast ratio Tumor: Muscle,[2]; 4 h post-injection,34.4 ± 8.39
same,tumor-to-background contrast ratio Tumor: kidney,[2]; 4 h post-injection,0.19 ± 0.02
same,Tissue (% ID/g): Adrenal glands,[2]; 24 h post-injection,0.76 ± 0.10 % ID/g
same,Tissue (% ID/g): Blood,[2]; 24 h post-injection,0.07 ± 0.00 % ID/g
same,Tissue (% ID/g): Bone,[2]; 24 h post-injection,0.07 ± 0.02 % ID/g
same,Tissue (% ID/g): Brain,[2]; 24 h post-injection,0.01 ± 0.00 % ID/g
same,Tissue (% ID/g): Fat,[2]; 24 h post-injection,0.16 ± 0.02 % ID/g
same,Tissue (% ID/g): Heart,[2]; 24 h post-injection,0.41 ± 0.07 % ID/g
same,Tissue (% ID/g): Intestine,[2]; 24 h post-injection,0.30 ± 0.06 % ID/g
same,Tissue (% ID/g): Kidneys,[2]; 24 h post-injection,20.3 ± 6.51 % ID/g
same,Tissue (% ID/g): Lacrimal,[2]; 24 h post-injection,0.00 ± 0.00 % ID/g
same,Tissue (% ID/g): Liver,[2]; 24 h post-injection,0.42 ± 0.08 % ID/g
same,Tissue (% ID/g): Lungs,[2]; 24 h post-injection,0.83 ± 0.12 % ID/g
